As usually defined, the IC50 is the concentration at which inhibition is half-maximal. A lower IC50 goes with greater potency.

The record followed here is PMC12114840, “Exploring the Anticancer Properties of 1,2,3-Triazole-Substituted Andrographolide Derivatives” (Pharmaceuticals, 2025).

The subject of one assay is A375 cells (melanoma). Kind of assay: Sulforhodamine B (SRB) antiproliferative assay, A375. The format is cell-based. To be noted: Homo sapiens, A-375, A375, 48 h, mean ± SEM of four to six independent experiments. Here is the method:
(§1) The antiproliferative properties of andrographolide and all prepared derivatives (2–26) were evaluated against a panel of different cancer cell lines, including human pancreatic ductal adenocarcinoma (PANC-1), colorectal adenocarcinoma (HCT116), melanoma (A375), breast adenocarcinoma (MCF-7) and a non-tumorigenic colon (CCD-18Co) cell line using the sulforhodamine B assay.
(§2) Human breast adenocarcinoma MCF-7, pancreatic ductal adenocarcinoma PANC-1, melanoma A375, and non-tumorigenic colon CCD-18Co cell lines were purchased from ATCC (Rockville, MD, USA). Human colorectal adenocarcinoma HCT116 cells were kindly provided by B. Vogelstein (The Johns Hopkins Kimmel Cancer Center, Baltimore, MD, USA). Tumor cells were routinely cultured in RPMI-1640 medium with UltraGlutamine from Biowest (VWR, Carnaxide, Portugal) supplemented with 10% fetal bovine serum (FBS) from Biowest (VWR, Carnaxide, Portugal), except for the PANC-1 cells, which were grown in DMEM (4.5 g/L glucose) with stable L-glutamine and sodium pyruvate and supplemented with 10% FBS. The non-tumorigenic CCD-18Co cells were cultured in EMEM (Lonza, VWR, Carnaxide, Portugal), supplemented with 10% FBS. All cells were incubated at 37 °C in a humidified atmosphere of 5% CO2. Routine mycoplasma testing was performed using the MycoAlert™ PLUS mycoplasma detection kit (Lonza).
(§3) For the evaluation of the compound effect on cell proliferation, human cell lines were seeded in 96-well plates at a density of 5.0 × 10^3 (HCT116, MCF-7, PANC-1, A375, and CCD-18Co) cells per well, for 24 h. Cells were then treated with serial dilutions of the compound (ranging from 0.63 to 30 µM), for an additional 48 h incubation period. The growth inhibitory effects were assessed by SRB assay, as described in [58], and the half-maximal inhibitory concentration (IC50 values) were determined for each cell line using the GraphPad Prism software version 7.0 (La Jolla, CA, USA). Culture medium containing a maximum of 0.05% dimethyl sulfoxide (DMSO) was used as negative control.

Assay [1] deals with CCD-18Co cells (non-tumorigenic colon). Briefly: Sulforhodamine B (SRB) antiproliferative assay, CCD-18Co. Type of assay: cell-based. To be noted: Homo sapiens, CCD-18Co non-tumorigenic, 48 h, mean ± SEM of four to six independent experiments. Here is the method:
as §1, §2, §3
(In general: The SRB assay estimates cell density from bound dye.)

Assay [2] relates to PANC-1 cells. Briefly: Cell cycle analysis by flow cytometry (propidium iodide). The format is cell-based, human. To be noted: PANC-1, 3 μM and 6 μM, 48 h. Here is the method:
(§4) To elucidate the antiproliferative activity of compound 12, cell cycle analysis was performed in the PANC-1 cancer cell line. The cell cycle is a highly controlled process where cellular DNA is replicated and then equally partitioned in two daughter cells. The cell cycle is composed of two distinct phases: the interphase, where the cell grows and undergoes three distinct periods—the G1 (pre-DNA synthesis), S (DNA synthesis), and G2 (pre-division) phases—and mitosis, where cell undergoes division. The newly formed daughter cells then enter the preparatory phases of interphase, and start the G0 phase (quiescence). […] Thus, PANC-1 cells were treated with compound 12 at 3 and 6 µM for 48 h and then analyzed by flow cytometry (Figure 1B,C).
The analyses were performed as described in the literature. In particular, 1.5 × 10^5 PANC-1 cells/well were seeded in 6-well plates and allowed to adhere overnight, followed by treatment with 3 µM and 6 µM of compound 12 for 48 h. For cell cycle analysis, cells were stained with propidium iodide (Sigma-Aldrich) and subjected to flow cytometry. Cell cycle phases were identified and quantified using the FlowJo X 10.0.7 software (Treestar, Ashland, OR, USA). For apoptosis analysis, cells were stained using the Annexin V-FITC Apoptosis Detection Kit I from BD Biosciences (Enzifarma, Porto, Portugal), according to the manufacturer’s instructions. […]

In assay [3] the test system is PANC-1 cells. Briefly: Annexin V-FITC/PI double-staining apoptosis assay. Type of assay: cell-based, human. Particulars: 48 h. The source says: To further investigate the mechanism of action of the triazole derivative 12, an apoptosis analysis was subsequently performed in PANC-1 cells. The early stages of apoptosis are characterized by the disruption of membrane asymmetry and the translocation of phosphatidylserine from the inner to the outer leaflet of the plasma membrane, which can be detected using Annexin V-FITC, a protein with high affinity for phosphatidylserine. In the later stages of apoptosis, the cell membrane loses its integrity, allowing propidium iodide (PI) to penetrate into the cell. Thus, PANC-1 cells treated with compound 12 at 3 and 6 μM for 48 h were analyzed by flow cytometry after Annexin V-FITC and PI staining (Figure 1B, bottom panel; and Figure 1D). This analysis can distinguish and quantify viable cells (annexin V−, PI−), early apoptotic cells (annexin V+, PI−), late apoptotic cells (annexin V+, PI+), and necrotic cells (annexin V−/PI+). […] Cleavage of PARP-1 into an 89 kDa protein, cleaved PARP-1, occurs during programmed cell death (apoptosis) as a result of proteolytic processing by active caspase-3. Thus, cleaved PARP-1 is recognized as a marker of apoptosis.
The analyses were performed as described in the literature. In particular, 1.5 × 10^5 PANC-1 cells/well were seeded in 6-well plates and allowed to adhere overnight, followed by treatment with 3 µM and 6 µM of compound 12 for 48 h. For cell cycle analysis, cells were stained with propidium iodide (Sigma-Aldrich) and subjected to flow cytometry. Cell cycle phases were identified and quantified using the FlowJo X 10.0.7 software (Treestar, Ashland, OR, USA). For apoptosis analysis, cells were stained using the Annexin V-FITC Apoptosis Detection Kit I from BD Biosciences (Enzifarma, Porto, Portugal), according to the manufacturer’s instructions. The Accuri^TM C6 flow cytometer and the BD Accuri C6 software (BD Biosciences, Heidelberg, Germany) were used.

For a further assay, the system named is p21. Kind of assay: Western blot, p21. The format is cell-based, human. Particulars: PANC-1, 3 and 6 μM, 48 h. Here is the method:
as §4
PANC-1 (1.5 × 10^5 cells/well) were seeded in six-well plates, allowed to adhere overnight, and treated with 3 µM and 6 µM of compound 12 for 48 h. Protein lysates were obtained in RIPA buffer with protease inhibitors (Sigma-Aldrich, Lisbon, Portugal) and quantified using Pierce® bicinchoninic acid (BCA) protein assay reagents (Thermo Fisher Scientific, Porto Salvo, Portugal). […] The signal was detected with enhanced chemiluminescence (ECL) (Amersham, GE Healthcare Life Sciences, Enzymatic, Portugal) using the ChemiDoc^TM MP Imaging system (BioRad Laboratories, Amadora, Portugal).
For orientation: Immunoblotting shows a protein as a band on a membrane.

The subject of a further assay is cleaved PARP-1. Briefly: Western blot, cleaved PARP-1. Type of assay: cell-based, human. Particulars: PANC-1, 3 and 6 μM, 48 h. The source says:
To further investigate the mechanism of action of the triazole derivative 12, an apoptosis analysis was subsequently performed in PANC-1 cells. The early stages of apoptosis are characterized by the disruption of membrane asymmetry and the translocation of phosphatidylserine from the inner to the outer leaflet of the plasma membrane, which can be detected using Annexin V-FITC, a protein with high affinity for phosphatidylserine. In the later stages of apoptosis, the cell membrane loses its integrity, allowing propidium iodide (PI) to penetrate into the cell. Thus, PANC-1 cells treated with compound 12 at 3 and 6 μM for 48 h were analyzed by flow cytometry after Annexin V-FITC and PI staining (Figure 1B, bottom panel; and Figure 1D). This analysis can distinguish and quantify viable cells (annexin V−, PI−), early apoptotic cells (annexin V+, PI−), late apoptotic cells (annexin V+, PI+), and necrotic cells (annexin V−/PI+). […]
PANC-1 (1.5 × 10^5 cells/well) were seeded in six-well plates, allowed to adhere overnight, and treated with 3 µM and 6 µM of compound 12 for 48 h. Protein lysates were obtained in RIPA buffer with protease inhibitors (Sigma-Aldrich, Lisbon, Portugal) and quantified using Pierce® bicinchoninic acid (BCA) protein assay reagents (Thermo Fisher Scientific, Porto Salvo, Portugal). […]

The compound `C=C1CC[C@@H]2[C@](C)(COC(C)=O)[C@H](OC(C)=O)CC[C@@]2(C)[C@@H]1C[C@H](C1=CCOC1=O)n1cc(-c2ccc(Br)cc2)nn1` [Compound 12, (12R)-4-bromophenyl-1,2,3-triazole-3,19-diacetoxy-14-deoxy-andrographolide] came in with an IC50 with A375 cells (melanoma) of 1.7 µM. In assay [1], this compound yielded an IC50 of 9.6 ± 2.3 µM. For the same compound, the “G2/M population compared to the control” value with PANC-1 cells [2] is on record as “significant increase in the G2/M population”. The viability at 3 µM with PANC-1 cells [3] (Homo sapiens, PANC-1, 3 µM, read-out: viable cells (annexin-V−, PI−; Q4)) was 79.7%. Besides, the viability at 6 µM in the assay with PANC-1 cells [3] (Homo sapiens, PANC-1, 6 µM, read-out: viable cells (annexin-V−, PI−; Q4)) is 68.4%. In the assay with PANC-1 cells [3] (PANC-1, 3 µM), the “early apoptotic cells (annexin V+, PI−; Q3)” value stood at 7.08%; the “late apoptotic cells (annexin V+, PI+; Q2)” value turned out to be 10.2%; the “percentage of apoptotic cells (Annexin V+)” value was determined as 17.28%. Moreover, in the assay with PANC-1 cells [3] (PANC-1, 6 µM), the “early apoptotic cells (annexin V+, PI−; Q3)” value amounted to 13.3%; the “late apoptotic cells (annexin V+, PI+; Q2)” value was 13.5%; the “percentage of apoptotic cells (Annexin V+)” value stood at 26.8%. In addition, the “expression of p21” value in the assay on p21 was “increased the expression of p21 in a dose-dependent manner”. Also, the “levels of cleaved PARP-1” value in the assay on cleaved PARP-1 is reported as “significant increase in the levels of cleaved PARP-1”.
